Earlier results, collected in patent US20130137635A1, “TRYPTOPHAN HYDROXYLASE INHIBITORS FOR THE TREATMENT OF METASTATIC BONE DISEASE” (LEXICON PHARMACEUTICALS, INC., priority 2010, published 2013).

What was measured:
carcinoid syndrome = conditions: patients; reported in the 1960's
[1] = system: cholangiocarcinoma tumors; conditions: in vivo xenograft model of cholangiocarcinoma tumors; pCPA treatment

For `N[C@@H](Cc1ccc(Cl)cc1)C(=O)O` (racemic) [pCPA, para-chlorophenylalanine], the “effect on symptoms of carcinoid syndrome” value (carcinoid syndrome) is given as “alleviated some of the symptoms of carcinoid syndrome”, the “side effects on administration” value (carcinoid syndrome) is given as “unacceptable side effects” and the tumor growth [1] is given as “suppressed tumor growth”.
